Reference: PMC11984871, “Perillaldehyde Improves Parkinson‐Like Deficits by Targeting G3BP Mediated Stress Granule Assembly in Preclinical Models” (Advanced Science, 2025)

Biological target: T1, G3BP1 (Homo sapiens, UniProt Q13283)
T1 construct: full-length, EGFP-tagged (mEGFP), recombinant in E. coli BL21(DE3) from pET-28a, size-exclusion purified; immobilized on CM5 chip
Assay: SPR (Biacore 8K, CM5 chip, immobilized EGFP-G3BP1, […] Langmuir fit)
Assay type: binding

T1 sequence (Q13283 2-466): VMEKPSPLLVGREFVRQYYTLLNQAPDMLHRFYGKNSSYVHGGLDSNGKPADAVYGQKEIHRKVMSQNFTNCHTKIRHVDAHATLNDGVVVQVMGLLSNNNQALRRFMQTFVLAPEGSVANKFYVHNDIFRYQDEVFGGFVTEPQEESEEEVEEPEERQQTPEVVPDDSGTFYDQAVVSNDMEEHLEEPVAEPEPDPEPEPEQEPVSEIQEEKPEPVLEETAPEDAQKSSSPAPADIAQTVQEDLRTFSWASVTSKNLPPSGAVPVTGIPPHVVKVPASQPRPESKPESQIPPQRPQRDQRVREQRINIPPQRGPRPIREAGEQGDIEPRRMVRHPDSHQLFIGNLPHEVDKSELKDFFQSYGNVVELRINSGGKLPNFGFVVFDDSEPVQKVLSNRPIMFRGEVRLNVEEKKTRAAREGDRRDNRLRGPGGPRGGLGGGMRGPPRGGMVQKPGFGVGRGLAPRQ

Row | Compound | Kd [µM]
1 | CC(=NNC(=O)c1ccccc1O)c1ccccc1O [C108] | 2.71
2 | C=C(C)[C@@H]1CC=C(C=O)CC1 [perillaldehyde] | 5.49
